We go through 13 compounds from publication PMC6264390, “Design, Synthesis and Structure-activity Studies of Rhodanine Derivatives as HIV-1 Integrase Inhibitors” (Molecules, 2010).

Read-outs that look alike come from different tables or passages of the source. A value given as a limit tells only on which side of the number the result lay.

For series [1], the target named is T1, human apurinic/apyrimidinic endonuclease 1 (APE1) (Homo sapiens, UniProt P27695).
T1 construct: His; made in house
As to the kind of experiment: APE1 inhibition assay. The format is biochemical. The method, then: (§1) All compounds were dissolved in DMSO to a final stock concentration of 10 mM and stored at −20 °C. Initial screening for IN inhibitory effect was done at 100 μM and dilutions were made in DMSO. Compounds showing at least 50% inhibition at 100 μM were selected for IC50 determinations. γ-[^32P]-ATP was purchased from Perkin Elmer (Waltham, MA, USA). The expression system for wild-type IN was a generous gift of Dr. Robert Craigie, Laboratory of Molecular Biology, NIDDK, NIH (Bethesda, MD, USA). His-tagged APE1 was purified from an expression system kindly provided by Dr. Tom Curran, Department of Developmental Neurobiology, St. Jude Children’s Research Hospital (Memphis, TN, USA).
(§2) 21-mer oligonucleotides used in IN inhibition assay [21top (5’-[…]-3’) and 21bot (5’-ACTGCTAGAGATTTTCCA CAC-3’)] were purchased from Integrated DNA Technologies (Coralville, IA, USA) and purified by UV shadowing on polyacrylamide gel. The oligonucleotides used in APE1 inhibition assay [top strand: 5′-ATTTCACCGGTACG(F)TCTAGAATC CG-3′ containing the tetrahydrofuran synthetic abasic residue (F), and bottom strand: 3′-TAAAGTGG CCATGC(C)AGATCTTAGGC-5′] were purchased from The Midland Certified Reagent Company (Midland, TX, USA). To analyze the extent of 3’-processing and strand transfer with 5’-end labeled substrates, 21top was 5’-end labeled using T4 polynucleotide kinase (Epicentre, Madison, WI, USA) and [γ-^32P]-ATP (Perkin Elmer, Waltham, MA, USA). The kinase was heat-inactivated at 95 °C and 21bot was added in […]. The reaction mixture was allowed to cool slowly to room temperature, and purified through a spin-25 minicolumn (USA Scientific, Ocala, FL, USA) to separate annealed double-stranded oligonucleotide from unincorporated material. The oligonucleotides used in the APE1 inhibition assay were labeled using a similar protocol.
APE1 inhibition assay was performed as previously described. To determine the extent of endonucleolytic cleavage of the abasic residue, the test compounds, diluted in DMSO, were preincubated with recombinant APE1 at a final concentration of 0.05 nM in the reaction buffer [50 mM NaCl, 1 mM HEPES, pH 7.5, 50 μM EDTA, 50 μM dithiothreitol, 10% glycerol (w/v), 7.5 mM MnCl2, 0.1 mg mL‑1 bovine serum albumin, 10 mM 2-mercaptoethanol, 10% DMSO, and 25 mM MOPS, pH 7.2] at 30 °C for 10 min. Following preincubation, 200 nM of the 5′-end ^32P-labeled linear oligonucleotide substrate was added, and incubated for an additional 10 minutes. Reactions were quenched by the addition of an equal volume (16 μL) of loading dye (98% deionized formamide, 10 mM EDTA, 0.025% xylene cyanol, and 0.025% bromophenol blue). An aliquot (5 μL) was electrophoresed on a denaturing 20% polyacrylamide gel (0.09 M tris-borate pH 8.3, 2 mM EDTA, 20% acrylamide, 8 M urea). The gels were dried, exposed in a PhosphorImager cassette and analyzed using a Typhoon 8610 Variable Mode Imager (Amersham Biosciences). Quantification of enzyme inhibition was done using Image Quant 5.2 software. The percent inhibition (% I) was calculated using the following equation: %I = 100 × [1 − (D − C) / (N − C)] where C, N, and D are the fractions of 26-mer substrate converted to 13-mer incision products (or integration products) for DNA alone, DNA plus APE1, and DNA, APE1 plus test compound, respectively. IC50 values were determined by plotting the logarithm of compound concentration as a function of %I to obtain the concentration that produced 50% inhibition. An optimum concentration of APE1 enzyme, at which there is complete conversion of the synthetic abasic-site containing oligonucleotide substrate to its cleaved product without subsequent exonuclease activity, was used in the assay.

The next series has as its target T2, HIV-1 IN (Human immunodeficiency virus type 1 group M subtype B, UniProt P12497).
T2 construct: pre-incubated with purified recombinant IN (at a final concentration of 200 nM); made in house
Kind of series: In vitro IN inhibition assay (3’-processing and strand transfer). The series is classed as biochemical. The following applies: for IC50: Mn2+ cofactor (7.5 mM MnCl2); for IN inhibition (in words): highest concentration tested 100 μM. How it is done:
as §1, §2
To determine the extent of 3’-processing and strand transfer, the test compounds, diluted in DMSO, were pre-incubated with purified recombinant IN (at a final concentration of 200 nM) in the reaction buffer [50 mM NaCl, 1 mM HEPES (pH 7.5), 50 μM EDTA, 50 μM dithiothreitol, 10% glycerol (w/v), 7.5 mM MnCl2, 0.1 mg mL–1 bovine serum albumin, 10 mM 2-mercaptoethanol, 10% dimethyl sulfoxide, and 25 mM MOPS (pH 7.2)] at 30 °C for 30 min. For Mg^2+ assay, 7.5 mM MgCl2 was substituted for MnCl2 and an optimal concentration of PEG was included in the reaction buffer. Following the pre-incubation, 20 nM of the 5’-end ^32P-labeled linear oligonucleotide substrate was added to the reaction mixture and incubated for an additional 1 h. Reactions were quenched by addition of 50X loading dye (98% deionized formamide, 10 mM EDTA, 0.025% xylene cyanol, and 0.025 % bromophenol blue). An aliquot was subjected to electrophoresis on a denaturing polyacrylamide gel (0.09 M tris–borate, pH 8.3, 2 mM EDTA, 20% acrylamide, 8M urea). Gels were dried under vacuum, exposed in a PhosphorImager cassette and visualized with a Typhoon 8610 Variable Mode Imager (Amersham Biosciences). Quantification was done with Image Quant 5.2 software. Percent inhibition (%I) was calculated using the following equation: %I = 100 × [1 − (D − C) / (N − C)] where C, N, and D are the fractions of 21-mer substrate converted into 19-mer (product of 3’-processing) or strand-transfer products for DNA alone, DNA plus IN, and DNA, IN plus test compound, respectively. IC50 values were determined by plotting the logarithm of test compound concentrations as a function of %I to obtain the concentration that produced 50% inhibition.

The mark [2] stands for this setting: read-out: Inhibition of APE1 catalytic activity IC50.
The mark [3] stands for this setting: read-out: Inhibition of IN catalytic activity IC50, 3’-Processing.
[4] abbreviates: read-out: Inhibition of IN catalytic activity IC50, Strand Transfer.

T1 sequence (P27695 whole entry): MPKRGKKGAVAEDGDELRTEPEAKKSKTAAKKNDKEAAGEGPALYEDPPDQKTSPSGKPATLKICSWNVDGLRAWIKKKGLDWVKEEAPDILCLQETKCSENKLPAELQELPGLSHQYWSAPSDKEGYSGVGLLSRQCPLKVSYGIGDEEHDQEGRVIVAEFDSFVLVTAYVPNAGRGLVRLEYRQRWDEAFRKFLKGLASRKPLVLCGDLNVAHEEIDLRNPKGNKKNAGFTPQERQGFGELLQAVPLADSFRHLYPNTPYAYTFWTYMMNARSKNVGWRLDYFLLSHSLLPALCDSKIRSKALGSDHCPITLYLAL

What is called IC50 is the concentration needed to halve the response being measured. With “2-{[5-(2-Hydroxy-3,5-diisopropylbenzylidene)-4-oxo-2-thioxo-1,3-thiazolidin-3-yl]amino}-N-(3,4,5-trimethoxyphenyl)-2-thioxoacetamide [Compound 40]”, the IC50 in series [1] (setting [2]) is over 100 µM; at HIV-1 IN (setting [3]) it was over 100 µM; on HIV-1 IN (setting [4]), 95 µM.

Take “2-{[5-(2-Hydroxy-3,5-diisopropylbenzylidene)-4-oxo-2-thioxo-1,3-thiazolidin-3-yl]amino}-N-(4-hydroxyphenyl)-2-thioxoacetamide [Compound 54]”: the IC50 (in series [1] (setting [2]); at HIV-1 IN (setting [3]); on HIV-1 IN (setting [4])) was over 100 µM throughout. In addition, the “IN inhibition (in words)” value at HIV-1 IN was “loss of activity”.

In the case of “2-{[5-(5-Bromo-2-hydroxy-3-methoxybenzylidene)-4-oxo-2-thioxo-1,3-thiazolidin-3-yl]amino}-N-(3,4,5-trimethoxyphenyl)acetamide [Compound 38]”, the results for the IC50 (in series [1] (setting [2]); at HIV-1 IN (setting [3]); at HIV-1 IN (setting [4])) were 65 ± 33 µM, 51 ± 25 µM and 32 ± 11 µM, respectively.

Broadly, the melting point is the temperature of the solid-liquid transition. Compound `O=C(Nc1ccc(F)cc1)C(=S)NN1C(=O)C(=Cc2ccc(Cl)cc2)SC1=S` [Compound 6, 2-{[5-(4-Chlorobenzylidene)-4-oxo-2-thioxo-1,3-thiazolidin-3-yl]amino}-N-(4-fluorophenyl)-2-thioxo-acetamide] returned a melting point of 204 to 205 °C. The IC50 in series [1] (setting [2]) is over 100 µM. In addition, on HIV-1 IN (setting [3]), the IC50 is over 100 µM. The IC50 on HIV-1 IN (setting [4]) is over 100 µM.

`O=C(Nc1ccc(Cl)cc1)C(=S)NN1C(=O)C(=Cc2ccc(Cl)cc2)SC1=S` [Compound 7, 2-{[5-(4-Chlorobenzylidene)-4-oxo-2-thioxo-1,3-thiazolidin-3-yl]amino}-N-(4-chlorophenyl)-2-thioxo-acetamide]: the melting point lay within 211 to 212 °C. The IC50 at HIV-1 IN (setting [3]) was over 100 µM. The IC50 on HIV-1 IN (setting [4]) was over 100 µM. Also, the “IN inhibition (in words)” value at HIV-1 IN is on record as “lacked any IN inhibitory activity”.

As to `O=C(Nc1cccc([N+](=O)[O-])c1)C(=S)NN1C(=O)C(=Cc2ccc(Cl)cc2)SC1=S` [Compound 8, 2-{[5-(4-Chlorobenzylidene)-4-oxo-2-thioxo-1,3-thiazolidin-3-yl]amino}-N-(3-nitrophenyl)-2-thioxo-acetamide], the melting point was in the range of 221 to 222 °C. For the same compound, the IC50 in series [1] (setting [2]) stood at 76 ± 5 µM. Moreover, at HIV-1 IN (setting [3]), the concentration for half-maximal inhibition (IC50) was over 100 µM. Besides, the IC50 on HIV-1 IN (setting [4]) was over 100 µM. Also, the “IN inhibition (in words)” value on HIV-1 IN is given as “lacked any IN inhibitory activity”.

The compound `COc1ccc(NC(=O)C(=S)NN2C(=O)C(=Cc3ccc(Cl)cc3)SC2=S)cc1` [Compound 9, 2-{[5-(4-Chlorobenzylidene)-4-oxo-2-thioxo-1,3-thiazolidin-3-yl]amino}-N-(4-methoxyphenyl)-2-thioxoacetamide] showed a melting point of 186 to 187 °C. The IC50 in series [1] (setting [2]) worked out at 47 ± 2 µM. In addition, on HIV-1 IN (setting [3]), the IC50 amounted to 33 µM. Besides, at HIV-1 IN (setting [4]), the IC50 was determined as 33 µM.

`O=C(Nc1ccccc1)C(=S)NN1C(=O)C(=Cc2c[nH]c3ccccc23)SC1=S` [Compound 10, 2-{[5-(1H-indol-3-ylmethylene)-4-oxo-2-thioxo-1,3-thiazolidin-3-yl]amino}-N-phenyl-2-thioxo-acetamide] returned a melting point of 206 to 207 °C. Besides, the IC50 in series [1] (setting [2]) is over 100 µM. For the same compound, on HIV-1 IN (setting [3]), the IC50 was over 100 µM. Further, on HIV-1 IN (setting [4]), the IC50 is over 100 µM. Also, at HIV-1 IN, the “IN inhibition (in words)” value is listed as “abolished any activity”.

Compound `Cc1ccc(C(=O)C=C2SC(=S)N(NC(=S)C(=O)Nc3ccccc3)C2=O)cc1` [Compound 11, 2-{5-[2-(4-Methylphenyl)-2-oxoethylidene]-4-oxo-2-thioxo-1,3-thiazolidin-3-yl}amino-N-phenyl-2-thioxoacetamide] yielded a melting point of 147 to 148 °C. Besides, in series [1] (setting [2]), the IC50 is over 100 µM. The IC50 on HIV-1 IN (setting [3]) was found to be 58 ± 4 µM. Further, on HIV-1 IN (setting [4]), the IC50 was 20 ± 6 µM.

`O=C(Nc1ccc(F)cc1)C(=S)NN1C(=O)C(=Cc2ccc([N+](=O)[O-])o2)SC1=S` [Compound 12, N-(4-fluorophenyl)-2-{5-[(5-nitro-2-furyl)methylene]-4-oxo-2-thioxo-1,3-thiazolidin-3-yl}amino-2-thioxoacetamide] had a melting point of 155 to 156 °C. The IC50 in series [1] (setting [2]) was determined as 89 ± 13 µM. On HIV-1 IN (setting [3]), the IC50 came out at 100 µM. Further, the IC50 at HIV-1 IN (setting [4]) is 93 µM.

Regarding `O=C(Nc1cccc([N+](=O)[O-])c1)C(=S)NN1C(=O)C(=Cc2ccc([N+](=O)[O-])o2)SC1=S` [Compound 14, 2-{-5-[(5-Nitro-2-furyl)methylene]-4-oxo-2-thioxo-1,3-thiazolidin-3-yl}amino-N-(3-nitrophenyl)-2-thioxoacetamide], the melting point was 152 to 153 °C. For the same compound, the IC50 in series [1] was over 100 µM. Moreover, the IC50 on HIV-1 IN (setting [3]) worked out at 58 µM. Further, the IC50 at HIV-1 IN (setting [4]) came out at 58 µM.

In the case of `O=C(Nc1cccc(C(F)(F)F)c1)C(=S)NN1C(=O)C(=Cc2ccc([N+](=O)[O-])o2)SC1=S` [Compound 15, 2-{5-[(5-Nitro-2-furyl)methylene]-4-oxo-2-thioxo-1,3-thiazolidin-3-yl}amino-2-thioxo-N-[3-(trifluoro-methyl)phenyl]acetamide], the melting point is 163 to 164 °C. In addition, on HIV-1 IN (setting [3]), the IC50 was 61 ± 35 µM. Moreover, at HIV-1 IN (setting [4]), the IC50 was 56 ± 11 µM.

`COc1cc(/C=C2/SC(=S)N(NC(=S)C(=O)Nc3cc(C(F)(F)F)cc(C(F)(F)F)c3)C2=O)cc(OC)c1OC` [Compound 26, N-[3,5-bis(trifluoromethyl)phenyl]-2-{[4-oxo-2-thioxo-5-(3,4,5-trimethoxybenzylidene)-1,3-thiazol-idin-3-yl]amino}-2-thioxoacetamide]: the melting point is 187 to 188 °C. Besides, the IC50 on HIV-1 IN (setting [3]) was over 100 µM. For the same compound, the IC50 at HIV-1 IN (setting [4]) is over 100 µM.
